Tested on: T1, GABAA receptor (GABAAR), native, cultured rat hippocampal neurons
T1 construct: gene Gabra1; native receptors of unresolved subunit composition in primary cultured hippocampal neurons (12-16 DIV for firing recordings)
Experiment: whole-cell patch clamp, peak current
Format: cell-based
Conditions: direct activation without GABA; holding potential −50 mV; pH 7.3

CC(C)[C@@H]1CC[C@@H](C)C[C@H]1O [menthol]
EC50: 490 µM
